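All cell lines were grown in 96-well plates and treated with compound for 48 hours. GI50 marks 50% less growth.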 The source made the active and inactive calls. No stated cut-off is given here; in the data, active = GI50 up to about 1.1 µM and inactive = higher.
Legend:
Assay in all cases: NCI anticancer screen, dose series, 48 h
OVCAR-3 = test system: OVCAR-3
SNB-19 = test system: SNB-19
KM-20L2 = test system: KM-20L2
HT-29 = test system: HT-29
NCI-H226 = test system: NCI-H226
786-0 = test system: 786-0
NCI-H460 = test system: NCI-H460
NCI-H23 = test system: NCI-H23
UACC-62 = test system: UACC-62
SK-OV-3 = test system: SK-OV-3
SK-MEL-28 = test system: SK-MEL-28
HCT-116 = test system: HCT-116
OVCAR-8 = test system: OVCAR-8
SF-295 = test system: SF-295
UO-31 = test system: UO-31
SR = test system: SR
Hs-578T = test system: Hs-578T
T47D = test system: T47D
NCI/ADR-RES = test system: NCI/ADR-RES
PC-3 = test system: PC-3

Measured: GI50

C/C(=N\N(C)C)C(CN(C)C)C(c1ccccc1)c1c(O)c2ccccc2oc1=O (stereo not drawn)
inactive: OVCAR-3 > 100 µM | SNB-19 > 100 µM | KM-20L2 > 100 µM | HT-29 > 100 µM | NCI-H226 > 100 µM | 786-0 > 100 µM | NCI-H460 > 100 µM | NCI-H23 > 100 µM | UACC-62 > 100 µM | SK-OV-3 > 100 µM | SK-MEL-28 > 100 µM | HCT-116 > 100 µM | OVCAR-8 > 100 µM | SF-295 > 100 µM

Cc1cccc(C(C)(C)C)c1NC(=O)CC1Sc2ccccc2NC1=O (stereo not drawn)
inactive: OVCAR-3 55.7 µM | SNB-19 > 100 µM | KM-20L2 > 100 µM | HT-29 43 µM | NCI-H226 94.2 µM | 786-0 46 µM | NCI-H460 34 µM | NCI-H23 46.6 µM | UO-31 60.5 µM | UACC-62 68.7 µM | SK-OV-3 > 100 µM | SK-MEL-28 > 100 µM | HCT-116 22.4 µM | OVCAR-8 94.2 µM | SF-295 > 100 µM

CC(=O)NC(CCCN(Cc1ccccc1)C(=O)N(C)N=O)C(=O)NCc1ccccc1 (stereo not drawn)
inactive: OVCAR-3 > 100 µM | SNB-19 > 100 µM | KM-20L2 > 100 µM | HT-29 > 100 µM | NCI-H226 > 100 µM | 786-0 > 100 µM | NCI-H460 > 100 µM | NCI-H23 > 100 µM | UO-31 > 100 µM | UACC-62 > 100 µM | SK-OV-3 > 100 µM | SK-MEL-28 > 100 µM | HCT-116 > 100 µM | OVCAR-8 > 100 µM | SF-295 > 100 µM

COc1ccc(C(=O)O)c(Br)c1OCc1ccccc1
inactive: OVCAR-3 > 100 µM | SNB-19 > 100 µM | KM-20L2 > 100 µM | HT-29 > 100 µM | NCI-H226 > 100 µM | 786-0 > 100 µM | NCI-H460 > 100 µM | NCI-H23 > 100 µM | UO-31 88.3 µM | UACC-62 > 100 µM | SK-OV-3 > 100 µM | SK-MEL-28 > 100 µM | HCT-116 > 100 µM | OVCAR-8 > 100 µM | SF-295 > 100 µM

CCCCCc1cc(OC(=O)c2c(O)cc(OC)cc2CCCCC)cc(O)c1C(=O)O
inactive: SNB-19 12.7 µM | KM-20L2 18.5 µM | HT-29 14.2 µM | 786-0 16.4 µM | NCI-H460 15.9 µM | NCI-H23 12.4 µM | UO-31 13.6 µM | UACC-62 14.5 µM | SK-OV-3 16.7 µM | SK-MEL-28 17.1 µM | OVCAR-8 18.2 µM | SF-295 16.8 µM

O/N=C(\C(=N/O)Nc1ccc(-c2ccc(NC(=N/O)/C(=N\O)c3ccccc3)cc2)cc1)c1ccccc1
inactive: OVCAR-3 17.1 µM | SNB-19 19.2 µM | KM-20L2 18.9 µM | HT-29 13.6 µM | NCI-H226 28.5 µM | 786-0 21.5 µM | NCI-H460 17.3 µM | NCI-H23 17.5 µM | UO-31 31.8 µM | UACC-62 18.5 µM | SK-OV-3 17.5 µM | HCT-116 18.7 µM | OVCAR-8 21.4 µM | SF-295 18.6 µM

O=C(Nc1cccc([N+](=O)[O-])c1)C(=O)C(C(=O)c1ccccc1-c1ccccc1)C1OC(=O)c2ccccc21 (stereo not drawn)
inactive: OVCAR-3 15.4 µM | KM-20L2 23.3 µM | HT-29 38.8 µM | NCI-H226 5.96 µM | 786-0 18.7 µM | NCI-H460 25.9 µM | NCI-H23 14.7 µM | UO-31 20.2 µM | UACC-62 19.5 µM | SK-OV-3 32.5 µM | SK-MEL-28 23.5 µM | HCT-116 12.8 µM | OVCAR-8 22.3 µM | SF-295 22 µM

CC#C[C@@]1(O)CCCCC1O (stereo partly drawn)
inactive: OVCAR-3 > 100 µM | SNB-19 > 100 µM | KM-20L2 > 100 µM | HT-29 > 100 µM | NCI-H226 > 100 µM | 786-0 > 100 µM | NCI-H460 > 100 µM | NCI-H23 > 100 µM | UO-31 > 100 µM | UACC-62 > 100 µM | SK-OV-3 > 100 µM | SK-MEL-28 > 100 µM | HCT-116 > 100 µM | OVCAR-8 > 100 µM | SF-295 > 100 µM

CCc1cccc(C)c1NC(=O)CCc1nnc2s/c(=C\c3cccc4ccccc34)c(=O)n12
inactive: OVCAR-3 78 µM | SNB-19 > 100 µM | KM-20L2 > 100 µM | HT-29 > 100 µM | NCI-H226 > 100 µM | 786-0 > 100 µM | NCI-H460 > 100 µM | NCI-H23 > 100 µM | UO-31 > 100 µM | UACC-62 > 100 µM | SK-OV-3 > 100 µM | SK-MEL-28 > 100 µM | HCT-116 57.1 µM | OVCAR-8 > 100 µM | SF-295 71.1 µM

COC(=O)C(=O)C(CC(=O)Nc1cccc(C(F)(F)F)c1)C(=O)OC (stereo not drawn)
inactive: SNB-19 > 100 µM | KM-20L2 > 100 µM | NCI-H226 > 100 µM | 786-0 > 100 µM | NCI-H460 > 100 µM | NCI-H23 > 100 µM | UO-31 > 100 µM | UACC-62 > 100 µM | SK-OV-3 > 100 µM | SK-MEL-28 > 100 µM | HCT-116 > 100 µM | OVCAR-8 > 100 µM

CC(=O)Oc1c2c(c(O)c3ccccc13)C(n1cnc3c(ncn3C3OC(CO)C4OC(C)(C)OC43)c1=N)CCC2 (stereo not drawn)
inactive: OVCAR-3 14.5 µM | SNB-19 16 µM | KM-20L2 21.6 µM | HT-29 13.2 µM | NCI-H226 23.3 µM | 786-0 14.5 µM | NCI-H460 23.3 µM | NCI-H23 16.8 µM | UO-31 16.2 µM | UACC-62 13.9 µM | SK-OV-3 19 µM | SK-MEL-28 17.5 µM | OVCAR-8 11.2 µM | SF-295 13.9 µM

C/C=C(/C)C(=O)O[C@@H]1CCN2CC[C@H](COC(=O)/C(=C/C)CO)C12 (stereo partly drawn)
inactive: OVCAR-3 > 100 µM | SR 39.5 µM | Hs-578T 36.6 µM | T47D > 100 µM | SNB-19 > 100 µM | HT-29 28.7 µM | NCI-H226 > 100 µM | 786-0 > 95.3 µM | NCI-H460 59.6 µM | NCI-H23 > 100 µM | NCI/ADR-RES > 100 µM | UO-31 > 87.7 µM | UACC-62 > 100 µM | SK-OV-3 > 100 µM | SK-MEL-28 > 75 µM | HCT-116 48.8 µM | PC-3 > 100 µM | OVCAR-8 > 100 µM | SF-295 > 89.1 µM

Cc1nc2c(=O)[nH]c(=O)nc-2n(CCO)c1C
inactive: OVCAR-3 > 100 µM | SR > 100 µM | Hs-578T > 100 µM | T47D > 100 µM | SNB-19 > 100 µM | HT-29 > 100 µM | NCI-H226 > 100 µM | 786-0 > 100 µM | NCI-H460 > 100 µM | NCI-H23 > 100 µM | NCI/ADR-RES > 100 µM | UO-31 > 100 µM | UACC-62 > 100 µM | SK-OV-3 > 100 µM | SK-MEL-28 > 100 µM | HCT-116 > 100 µM | PC-3 > 100 µM | OVCAR-8 > 100 µM | SF-295 > 100 µM

Source: ChEMBL document CHEMBL1201862, “PubChem BioAssay data set” (2004)
